# Assay results as given in patent US8697739B2, “Bicyclic acetyl-CoA carboxylase inhibitors and uses thereof” (Novartis AG, priority 2010, dated 2014).
# Molecular target: T1, human acetyl-CoA carboxylase 2 (ACC2) (Homo sapiens, UniProt O00763)
# T1 construct: The cDNA encoding amino acids 144 to 2458 of human acetyl-CoA carboxylase 2; made in house; host or cells: Sf9 insect cells (baculovirus, pFastBac1)
# Assay: Acetyl-CoA carboxylase enzyme assay (malonyl-CoA formation by LC/MS/MS)
# Type: biochemical
# Details: recombinant human ACC2 (aa 144-2458); read-out: IC50 ACC2
# Procedure, shortened: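 Malonyl-CoA formation was read by LC/MS/MS MRM against a [13C3]-malonyl-CoA internal standard, after acetic acid quench. The enzyme was baculovirus/Sf9-expressed human ACC2 residues 144–2458, given 15 minutes room-temperature compound preincubation in HEPES pH 7.5 buffer with MgCl2, citrate and DTT. Substrate solution held 50 μM acetyl-CoA, 120 μM ATP and 2 mM KHCO3.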
# T1 sequence (O00763 144-2458): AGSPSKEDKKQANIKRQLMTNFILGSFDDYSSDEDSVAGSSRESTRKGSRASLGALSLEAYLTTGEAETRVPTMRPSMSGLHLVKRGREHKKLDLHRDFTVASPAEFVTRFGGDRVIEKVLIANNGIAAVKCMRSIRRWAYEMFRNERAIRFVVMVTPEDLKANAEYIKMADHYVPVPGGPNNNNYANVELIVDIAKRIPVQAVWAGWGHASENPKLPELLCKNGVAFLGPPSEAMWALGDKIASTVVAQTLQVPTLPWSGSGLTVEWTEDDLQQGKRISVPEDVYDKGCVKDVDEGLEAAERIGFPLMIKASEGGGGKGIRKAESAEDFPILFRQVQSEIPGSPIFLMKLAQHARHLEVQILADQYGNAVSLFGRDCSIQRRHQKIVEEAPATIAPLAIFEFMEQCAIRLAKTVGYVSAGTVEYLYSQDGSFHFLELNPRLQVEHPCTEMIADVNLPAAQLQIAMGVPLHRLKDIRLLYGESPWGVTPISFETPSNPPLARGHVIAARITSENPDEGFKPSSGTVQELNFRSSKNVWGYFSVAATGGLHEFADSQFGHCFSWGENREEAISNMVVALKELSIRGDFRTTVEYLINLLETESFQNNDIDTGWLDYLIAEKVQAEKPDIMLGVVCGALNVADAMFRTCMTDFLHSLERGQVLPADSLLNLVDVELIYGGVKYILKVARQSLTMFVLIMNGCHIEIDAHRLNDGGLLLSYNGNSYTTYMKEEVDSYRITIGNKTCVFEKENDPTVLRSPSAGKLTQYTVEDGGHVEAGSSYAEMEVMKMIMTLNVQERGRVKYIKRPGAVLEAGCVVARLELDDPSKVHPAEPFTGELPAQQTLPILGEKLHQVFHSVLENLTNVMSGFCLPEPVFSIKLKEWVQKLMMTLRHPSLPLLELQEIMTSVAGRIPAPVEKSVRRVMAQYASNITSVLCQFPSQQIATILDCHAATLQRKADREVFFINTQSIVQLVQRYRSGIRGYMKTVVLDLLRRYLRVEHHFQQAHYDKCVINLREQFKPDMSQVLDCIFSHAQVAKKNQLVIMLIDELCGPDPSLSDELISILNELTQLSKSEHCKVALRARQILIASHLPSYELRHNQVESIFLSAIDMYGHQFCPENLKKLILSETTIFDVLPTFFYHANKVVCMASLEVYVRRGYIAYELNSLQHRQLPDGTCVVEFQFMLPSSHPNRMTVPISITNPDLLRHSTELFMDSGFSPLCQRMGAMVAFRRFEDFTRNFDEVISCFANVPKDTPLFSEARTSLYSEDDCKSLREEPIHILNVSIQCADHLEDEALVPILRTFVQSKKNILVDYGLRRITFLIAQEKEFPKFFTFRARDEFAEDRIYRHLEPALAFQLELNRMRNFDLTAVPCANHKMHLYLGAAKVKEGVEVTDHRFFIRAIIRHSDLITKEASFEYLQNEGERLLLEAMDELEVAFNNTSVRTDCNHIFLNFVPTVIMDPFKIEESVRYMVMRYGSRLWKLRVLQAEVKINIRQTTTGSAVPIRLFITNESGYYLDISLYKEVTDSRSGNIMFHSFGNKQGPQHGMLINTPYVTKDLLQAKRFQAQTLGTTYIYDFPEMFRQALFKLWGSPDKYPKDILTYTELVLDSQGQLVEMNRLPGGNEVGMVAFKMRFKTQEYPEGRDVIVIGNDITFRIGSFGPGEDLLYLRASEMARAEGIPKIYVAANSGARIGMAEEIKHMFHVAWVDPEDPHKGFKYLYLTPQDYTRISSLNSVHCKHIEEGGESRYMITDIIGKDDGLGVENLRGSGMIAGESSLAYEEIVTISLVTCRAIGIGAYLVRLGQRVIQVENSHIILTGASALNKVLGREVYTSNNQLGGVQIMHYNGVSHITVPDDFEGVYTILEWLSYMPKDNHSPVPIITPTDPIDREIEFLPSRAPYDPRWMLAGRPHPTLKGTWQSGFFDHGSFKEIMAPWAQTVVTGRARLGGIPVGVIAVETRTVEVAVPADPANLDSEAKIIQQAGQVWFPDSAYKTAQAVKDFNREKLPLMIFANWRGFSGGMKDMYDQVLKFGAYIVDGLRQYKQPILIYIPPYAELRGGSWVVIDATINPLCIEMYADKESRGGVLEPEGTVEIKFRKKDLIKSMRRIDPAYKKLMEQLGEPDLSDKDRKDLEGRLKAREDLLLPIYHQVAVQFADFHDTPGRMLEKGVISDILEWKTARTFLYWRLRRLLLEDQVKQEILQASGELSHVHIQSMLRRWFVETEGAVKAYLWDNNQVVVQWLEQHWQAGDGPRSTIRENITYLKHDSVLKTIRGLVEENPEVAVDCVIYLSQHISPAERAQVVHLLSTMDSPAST
row,IC50,Structure (SMILES)
1,66 nM,"C[C@@H](NC(=O)[C@H]1CC[C@H](NS(=O)(=O)c2ccc3[nH]c(-c4ccc(C(=O)O)cc4)nc3c2)CC1)c1ccccc1 [Example 278, 4-(5-(N-((1R,4r)-4-((R)-1-phenylethylcarbamoyl)cyclohexyl)sulfamoyl)-1H-benzo[d]imidazol-2-yl)benzoic acid]"
2,3600 nM,"O=C([C@H]1CC[C@H](NS(=O)(=O)c2ccc3cc(-c4ccccc4C(F)(F)F)[nH]c3c2)CC1)N1CCCC(C(F)(F)F)C1 (stereo partly shown) [Example 330, 2-(2-(trifluoromethyl)phenyl)-N-((1r,4r)-4-(3-(trifluoromethyl)piperidine-1-carbonyl)cyclohexyl)-1H-indole-6-sulfonamide]"
3,165 nM,"CC(C)COC(=O)N1CCC(C)(C)c2ccc(S(=O)(=O)N[C@H]3CC[C@H](C(=O)N[C@H](C)c4ccc(F)cc4)CC3)cc21 [Example 212, isobutyl 7-(N-((1R,4r)-4-((R)-1-(4-fluorophenyl)ethylcarbamoyl)cyclohexyl)sulfamoyl)-4,4-dimethyl-3,4-dihydroquinoline-1(2H)-carboxylate]"
4,65 nM,"C[C@@H](NC(=O)[C@H]1CC[C@H](NS(=O)(=O)c2ccc3[nH]c(-c4ccccc4)cc3c2)CC1)c1ccccc1 [Example 13, (1r,4R)-4-(2-phenyl-1H-indole-5-sulfonamido)-N—((R)-1-phenylethyl)cyclohexanecarboxamide]"
5,80 nM,"CCCN(CC1CC1)C(=O)[C@H]1CC[C@H](NS(=O)(=O)c2ccc3[nH]c(-c4ccccc4)nc3c2)CC1 [Example 625, (1r,4r)-N-(cyclopropylmethyl)-4-(2-phenyl-1H-benzo[d]imidole-5-sulfonamido)-N-propylcyclohexanecarboxamide]"
6,42 nM,"C[C@@H](NC(=O)[C@H]1CC[C@H](NS(=O)(=O)c2ccc3nc(OC4COC4)ccc3c2)CC1)c1ccc(F)cc1 [Example 64, (1r,4R)-N-((R)-1-(4-fluorophenyl)ethyl)-4-(2-(oxetan-3-yloxy)quinoline-6-sulfonamido)cyclohexanecarboxamide]"
7,< 10 nM,"Cn1c(-c2ccccc2)c(Cl)c2ccc(S(=O)(=O)N[C@H]3CC[C@H](C(=O)N4CCN[C@H](C(F)(F)F)C4)CC3)cc21 [Example 21, 3-chloro-1-methyl-2-phenyl-N-((1S,4r)-4-((S)-3-(trifluoromethyl)piperazine-1-carbonyl)cyclohexyl)-1H-indole-6-sulfonamide]"
8,400 nM,"CC(C)N(C)C(=O)[C@H]1CC[C@H](NS(=O)(=O)c2ccc3[nH]c(-c4cccnc4)cc3c2)CC1 [Example 288, (1r,4r)-N-isopropyl-N-methyl-4-(2-(pyridin-3-yl)-1H-indole-5-sulfonamido)cyclohexanecarboxamide]"
9,105 nM,"COCCN(C(=O)[C@H]1CC[C@H](NS(=O)(=O)c2ccc3[nH]c(-c4ccccc4)nc3c2)CC1)C(C)C [Example 675, (1r,4R)-N-isopropyl-N-(2-methoxyethyl)-4-(2-phenyl-1H-benzo[d]imidazole-5-sulfonamido)cyclohexanecarboxamide]"
10,30 nM,"Cn1c(-c2ccccc2)cc2cc(S(=O)(=O)N[C@H]3CC[C@H](C(=O)N4CC(C(=O)O)CCC4c4ccccc4)CC3)ccc21 (stereo partly shown) [Example 91, 1-((1r,4r)-4-(1-methyl-2-phenyl-1H-indole-5-sulfonamido)cyclohexanecarbonyl)-6-phenylpiperidine-3-carboxylic acid]"
11,1170 nM,"CCCCNC(=O)[C@H]1CC[C@H](NS(=O)(=O)c2ccc3[nH]c(-c4ccccc4)nc3c2)CC1 [Example 633, (1r,4r)-N-butyl-4-(2-phenyl-1H-benzo[d]imidazole-5-sulfonamido)cyclohexanecarboxamide]"
12,58 nM,"C[C@@H]1CCCN1C(=O)[C@H]1CC[C@H](NS(=O)(=O)c2ccc3[nH]c(-c4ccccc4)nc3c2)CC1 [Example 125, N-((1R,4r)-4-((R)-2-methylpyrrolidine-1-carbonyl)cyclohexyl)-2-phenyl-1H-benzo[d]imidole-5-sulfonamide]"
13,75 nM,"CC(C)(C)OC(=O)N1CCN(C(=O)C2CCC(NS(=O)(=O)c3ccc4c(c3)CCCN4)CC2)C(c2ccccc2)C1 (stereo not shown) [Example 173, tert-butyl 3-phenyl-4-((1r,4r)-4-(1,2,3,4-tetrahydroquinoline-6-sulfonamido)cyclohexanecarbonyl)piperazine-1-carboxylate]"
14,1350 nM,"COc1ccccc1-c1nc2ccc(S(=O)(=O)Nc3ccc(C(=O)OC(C)C)cc3)cc2[nH]1 [Example 492, isopropyl 4-(2-(2-methoxyphenyl)-1H-benzo[d]imidazole-6-sulfonamido)benzoate]"
15,10 nM,"O=C(N[C@H](CO)c1ccccc1)[C@H]1CC[C@H](NS(=O)(=O)c2ccc3[nH]c(-c4ccccc4)nc3c2)CC1 [Example 579, (1r,4S)-N-((S)-2-hydroxy-1-phenylethyl)-4-(2-phenyl-1H-benzo[d]imidazole-5-sulfonamido)cyclohexanecarboxamide]"
16,40 nM,"C[C@H]1C[C@H](C)CN(C(=O)[C@H]2CC[C@H](NS(=O)(=O)c3ccc4[nH]c(-c5ccccc5)nc4c3)CC2)C1 [Example 665, N-((1S,4r)-4-((3S,5S)-3,5-dimethylpiperidine-1-carbonyl)cyclohexyl)-2-phenyl-1H-benzo[d]imidazole-5-sulfonamide]"
17,433 nM,"CC(C)(C)OC(=O)N1CCN(C(=O)[C@H]2CC[C@H](NS(=O)(=O)c3ccc4c(c3)CCC(C(F)(F)F)N4)CC2)C(c2ccccc2)C1 (stereo partly shown) [Example 179, tert-butyl 3-phenyl-4-((1r,4r)-4-(2-(trifluoromethyl)-1,2,3,4-tetrahydroquinoline-6-sulfonamido)cyclohexanecarbonyl)piperazine-1-carboxylate]"
18,1090 nM,"CC(C)(C)c1nnc([C@H]2CC[C@H](NS(=O)(=O)c3ccc4[nH]c(-c5ccc(F)cc5)nc4c3)CC2)o1 [Example 607, N-((1r,4r)-4-(5-tert-butyl-1,3,4-oxadiazol-2-yl)cyclohexyl)-2-(4-fluorophenyl)-1H-benzo[d]imidazole-5-sulfonamide]"
19,345 nM,"CC(NC(=O)[C@H]1CC[C@H](NS(=O)(=O)c2ccc3c(c2)N(C)CCC3)CC1)c1ccccn1 (stereo partly shown) [Example 159, (1r,4r)-4-(1-methyl-1,2,3,4-tetrahydroquinoline-7-sulfonamido)-N-(1-(pyridin-2-yl)ethyl)cyclohexanecarboxamide]"
20,40 nM,"COCc1ccc(-c2cc3ccc(S(=O)(=O)N[C@H]4CC[C@H](C(=O)N5CCOC[C@@H]5C)CC4)cc3n2C)cc1 [Example 437, 2-(4-(methoxymethyl)phenyl)-1-methyl-N-((1S,4r)-4-((S)-3-methylmorpholine-4-carbonyl)cyclohexyl)-1H-indole-6-sulfonamide]"
21,986 nM,"Cc1ccnc2ncc(S(=O)(=O)N[C@H]3CC[C@H](C(=O)N[C@H](C)c4ccc(F)cc4)CC3)cc12 [Example 140, (1r,4R)-N-((R)-1-(4-fluorophenyl)ethyl)-4-(5-methyl-1,8-naphthyridine-3-sulfonamido)cyclohexanecarboxamide]"
22,105 nM,"O=C([C@H]1CC[C@H](NS(=O)(=O)c2ccc3c(c2)NCCC3)CC1)N1CCNCC1c1ccccc1 (stereo partly shown) [Example 176, N-((1r,4r)-4-(2-phenylpiperazine-1-carbonyl)cyclohexyl)-1,2,3,4-tetrahydroquinoline-7-sulfonamide]"
